Settings: drug substance

For `C[C@]12CC[C@H]3[C@@H](CCC4=CC(=O)CC[C@@]43C)[C@@H]1CC[C@@H]2O` [Testosterone, 17β-Hydroxyandrost-4-en-3-one], the Stability in air was “powder. It is odourless, and stable in air”.
